Patent US20060287319A1, “Anti-viral compositions comprising heterocyclic substituted phenyl furans and related compounds” (priority 2005, published 2006)
Like-named read-outs stand apart in the source and are kept apart here.

Key:
[1] = test system: HIV-1IIIB infected H9 cells (H9/HIV-1IIIB) and MT-2 cells; assay: HIV-1 mediated cell-cell fusion (dye transfer assay); type: cell-based; settings: H9/HIV-1IIIB with MT-2 cells; read-out: EC50 (μM) (M ± SD) for inhibition of Cell fusion
Procedure: Inhibition of cell-cell fusion. A dye transfer assay was used for detection of HIV-1 mediated cell fusion as previously described (11,25,26). H9/HIV-1IIIB cells were labeled with a fluorescent reagent, Calcein-AM (Molecular Probes, Inc., Eugene, Oreg.) and then incubated with MT-2 cells (ratio=1:5) in 96-well plates at 37° C. for 2 hrs in the presence or absence of compounds tested. The fused and unfused Cacein-labeled HIV-1-infected cells were counted under an inverted fluorescence microscope (Zeiss, Germany) with an eyepiece micrometer disc. The percentage of inhibition of cell fusion and the IC50 values were calculated as previously described (11).

[2] = test system: HIV-1 IIIB; settings: for EC50: read-out: EC50 (μM) (M ± SD) for inhibition of p24, HIV-1 IIIB, MT-2 cells
Procedure: Assessment of anti-HIV-1 infectivity. The inhibitory activity of compounds on infection by laboratory-adapted HIV-1 strains was determined as previously described (34). […] For the time-of-addition assay, compounds were added at various time post-infection. Then the culture supernatants were removed and fresh media were added. On the fourth day post-infection, 100 μl of culture supernatants were collected from each well, mixed with equal volumes of 5% Triton X-100 and assayed for p24 antigen, which was quantitated by ELISA (23). Briefly, the wells of polystyrene plates (Immulon 1B, Dynex Technology, Chantilly, Va.) were coated with HIV immunoglobulin (HIVIG), which was prepared from plasma of HIV-seropositive donors with high neutralizing titers against HIV-1IIIB as previously described (36) in 0.085 M carbonate-bicarbonate buffer (pH 9.6) at 4° C. overnight, followed by washes with PBS-T buffer (0.01M PBS containing 0.05% Tween-20) and blocking with PBS containing 1% dry fat-free milk (Bio-Rad Inc., Hercules, Calif.). Virus lysates were added to the wells and incubated at 37° C. for 1 h. […] Reactions were terminated by addition of 1N H2SO4. […] Recombinant protein p24 (US Biological, Swampscott, Mass.) was included for establishing standard dose response curve.

[3] = test system: HIV-1 IIIB; assay: HIV-1-mediated cytopathic effect (CPE); type: cell-based; settings: read-out: EC50 (μM) (M ± SD) for inhibition of CPE
From the text: We thus purchased these compounds and tested their inhibitory activity on: 1) HIV-1 replication (p24 production); 2) HIV-1-mediated cytopathic effect (CPE); and 3) HIV-1 Env-induced cell-cell fusion; and their cytotoxicity to MT-2 cells.

[4] = test system: MT-2 cells
Procedure: Detection of in vitro cytotoxicity. The in vitro cytotoxicity of compounds for MT-2 cells was measured by a colorimetric method using XTT tetrazolium dye as previously described (21). Briefly, 100 μl of a compound at a graded concentration was added to equal volume of cells (5×10^5/ml) in a well of 96-well plates. After incubation at 37° C. for 4 days, XTT (1 mg/ml; […]; PolySciences, Inc., Warrington, Pa.) was added. Four hours later, the soluble intracellular formazan was quantitated colorimetrically at 450 nm with a reference at 570 nm.

[5] = read-out: Cytotoxicity CC50 (μM) (M ± SD), MT-2 cells

Row | Structure (SMILES) | EC50 [1] [µM] | EC50 [2] [µM] | EC50 [3] [µM] | CC50 [4, 5] [µM] | SI (CC50/EC50) ([2]; selectivity index) | SI (CC50/EC50) [2] | CC50 [4] [µM]
1 | O=C(O)c1cc(-c2ccc(/C=C3\SC(=O)N(c4cccc(Cl)c4)C3=O)o2)ccc1Cl [NB139] | > 100 | > 100 | > 100 | 239 ± 14.7 | – | – | –
2 | O=C(O)c1cc(-c2ccc(/C=C3\SC(=O)N(c4ccc(Cl)cc4)C3=O)o2)ccc1Cl [NB140] | > 100 | 12.1 ± 2.73 | 63.4 ± 1.28 | 126 ± 19.2 | 10.41 | – | –
3 | Cc1ccc(N2C(=O)/C(=C/c3ccc(-c4cccc(C(=O)O)c4)o3)SC2=S)c(C)c1 [NB146] | 1.08 | 0.299 ± 0.046 | 1.77 ± 0.368 | 33.8 ± 4.44 | 103.15 | – | –
4 | O=C(O)c1cccc(-c2ccc(/C=C3\SC(=S)N(c4cccc(F)c4)C3=O)o2)c1 [NB147] | > 100 | 10.4 ± 0.84 | > 100 | 92.3 ± 5.62 | 8.85 | – | –
5 | Cc1cccc(N2C(=O)/C(=C/c3ccc(-c4cccc(C(=O)O)c4)o3)SC2=S)c1 [NB150] | 0.56 ± 0.05 | 0.308 ± 0.047 | 0.403 ± 0.119 | 38.7 ± 5.85 | 125.69 | – | –
6 | COc1ccc(N2C(=O)/C(=C/c3ccc(-c4cccc(C(=O)O)c4)o3)SC2=S)cc1 [NB156] | 2.66 | 0.779 ± 0.092 | 3.16 ± 1.35 | > 399 | >470.59 | – | –
7 | O=C(O)c1cccc(-c2ccc(/C=C3\SC(=O)N(c4ccccc4)C3=O)o2)c1 [NB158] | > 100 | > 100 | > 100 | > 102 | – | – | –
8 | O=C(O)c1cccc(-c2ccc(/C=C3\SC(=O)N(c4ccc(Cl)cc4)C3=O)o2)c1 [NB160] | > 100 | > 100 | > 100 | > 376 | – | – | –
9 | O=C(O)c1cccc(-c2ccc(/C=C3\SC(=S)N(C4CCCCC4)C3=O)o2)c1 [NB181] | > 100 | 0.218 ± 0.024 | 0.605 ± 0.194 | > 387 | >1777.78 | – | –
10 | O=C(O)c1cccc(-c2ccc(/C=C3\SC(=S)N(Cc4ccccc4)C3=O)o2)c1 [NB182] | 1.68 ± 0.142 | 0.83 ± 0.024 | 2.25 ± 1.14 | – | – | – | –
11 | Cc1ccc(C(=O)O)cc1-c1ccc(/C=C2\SC(=O)N(c3ccccc3)C2=O)o1 [NB187] | > 100 | > 100 | > 100 | 363 ± 40.1 | – | – | –
12 | O=C(O)c1cc(-c2ccc(/C=C3\SC(=O)N(Cc4ccc(F)cc4)C3=O)o2)ccc1Cl [NB191] | > 100 | > 100 | > 100 | > 349 | – | – | –
13 | O=C(O)c1cc(-c2ccc(/C=C3\SC(=O)N(Cc4ccccc4)C3=O)o2)ccc1Cl [NB192] | > 100 | > 100 | > 100 | – | – | – | –
14 | Cc1c(C(=O)O)cccc1-c1ccc(/C=C2\SC(=O)N(CC(=O)Nc3ccccc3F)C2=O)o1 [NB195] | > 100 | > 100 | > 100 | 154 ± 6.93 | – | – | –
15 | O=C(O)c1cc(-c2ccc(/C=C3\SC(=O)N(CC(=O)N4CCOCC4)C3=O)o2)ccc1Cl [NB202] | > 100 | > 100 | > 100 | > 336 | – | – | –
16 | O=C(O)c1cc(-c2ccc(/C=C3\SC(=S)N(Cc4ccccc4)C3=O)o2)ccc1Cl [NB217] | 2.3 ± 0.131 | 0.767 ± 0.219 | 2.37 ± 0.657 | – | – | – | –
17 | O=C(O)c1cccc(-c2ccc(/C=C3\SC(=S)N(Cc4ccco4)C3=O)o2)c1 [NB238] | – | – | – | – | – | >14.57 | –

Second part, led by results:

Row | EC50 [1] [µM] | EC50 [2] [µM] | EC50 [3] [µM] | Structure (SMILES) | CC50 [4, 5] [µM] | SI (CC50/EC50) ([2]; selectivity index) | SI (CC50/EC50) [2] | CC50 [4] [µM]
18 | 34.9 | 2.65 | – | COc1ccccc1N1C(=O)/C(=C/c2ccc(-c3cccc(C(=O)O)c3)o2)SC1=S [NB148] | – | – | >266.67 | > 368
19 | 43.7 | 0.667 ± 0.174 | 3.86 ± 0.58 | CN1C(=O)/C(=C/c2ccc(-c3cccc(C(=O)O)c3)o2)SC1=S [NB151] | – | – | 187.17 | 125 ± 14.7
20 | > 100 | > 100 | > 100 | O=C(O)CN1C(=O)/C(=C/c2ccc(-c3cccc(C(=O)O)c3)o2)SC1=S [NB180] | – | – | – | > 411
21 | 16.8 ± 0.457 | 0.323 ± 0.081 | 0.753 ± 0.081 | C=CCN1C(=O)/C(=C/c2ccc(-c3cccc(C(=O)O)c3)o2)SC1=S [NB183] | – | – | 537.83 | 174 ± 16.2
22 | > 100 | > 100 | > 100 | O=C1NC(=S)S/C1=C\c1ccc(-c2cccc(C(=O)O)c2)o1 [NB184] | – | – | >28.93 | > 483
23 | > 100 | 76.9 ± 3.52 | 50.3 ± 4.09 | O=C1NC(=S)S/C1=C\c1ccc(-c2ccc(Cl)c(C(=O)O)c2)o1 [NB185] | – | – | >5.68 | > 437
24 | > 100 | > 100 | > 100 | CN1C(=O)S/C(=C\c2ccc(-c3cc(C(=O)O)ccc3Cl)o2)C1=O [NB186] | – | – | – | > 440
25 | > 100 | > 100 | > 100 | Cc1ccc(C(=O)O)cc1-c1ccc(/C=C2\SC(=S)NC2=O)o1 [NB188] | – | – | – | 197 ± 13
26 | 4.33 ± 0.078 | 0.984 ± 0.155 | 2.28 ± 0.389 | C=CCN1C(=O)/C(=C/c2ccc(-c3cccc(C(=O)O)c3C)o2)SC1=S [NB189] | – | – | >421.05 | > 414
27 | > 100 | > 100 | > 100 | O=C1NC(=S)S/C1=C\c1ccc(-c2cc(C(=O)O)ccc2Cl)o1 [NB190] | – | – | – | > 437
28 | > 100 | > 100 | > 100 | CC(C)CN1C(=O)S/C(=C\c2ccc(-c3ccc(Cl)c(C(=O)O)c3)o2)C1=O [NB193] | – | – | – | > 394
29 | > 100 | > 100 | > 100 | Cc1ccc(NC(=O)CN2C(=O)S/C(=C\c3ccc(-c4cccc(C(=O)O)c4)o3)C2=O)cc1 [NB194] | – | – | – | 207 ± 4.4
30 | > 100 | > 100 | > 100 | Cc1ccc(NC(=O)CN2C(=O)S/C(=C\c3ccc(-c4cccc(C(=O)O)c4C)o3)C2=O)cc1 [NB196] | – | – | – | > 336
31 | > 100 | > 100 | > 100 | Cc1ccc(NC(=O)CN2C(=O)S/C(=C\c3ccc(-c4cc(C(=O)O)ccc4Cl)o3)C2=O)cc1 [NB197] | – | – | – | > 341
32 | > 100 | > 100 | > 100 | Cc1cccc(NC(=O)CN2C(=O)S/C(=C\c3ccc(-c4cc(C(=O)O)ccc4Cl)o3)C2=O)c1 [NB198] | – | – | – | > 322
33 | > 100 | > 100 | > 100 | Cc1ccc(NC(=O)CN2C(=O)S/C(=C\c3ccc(-c4ccc(Cl)c(C(=O)O)c4)o3)C2=O)cc1 [NB199] | – | – | – | > 322
34 | > 100 | > 100 | > 100 | C#CCN1C(=O)S/C(=C\c2ccc(-c3ccc(Cl)c(C(=O)O)c3)o2)C1=O [NB200] | – | – | – | > 413
35 | 33.2 ± 0.566 | 10.7 ± 3.09 | > 100 | COCCN1C(=O)/C(=C/c2ccc(-c3ccc(Cl)c(C(=O)O)c3)o2)SC1=S [NB201] | – | – | 11.08 | 118 ± 8.54
36 | > 100 | > 100 | > 100 | C#CCN1C(=O)S/C(=C\c2ccc(-c3cc(C(=O)O)ccc3Cl)o2)C1=O [NB203] | – | – | – | > 413
37 | > 100 | > 100 | > 100 | CCOC(=O)CN1C(=O)S/C(=C\c2ccc(-c3ccc(Cl)c(C(=O)O)c3)o2)C1=O [NB204] | – | – | – | > 366
38 | > 100 | > 100 | > 100 | C#CCN1C(=O)S/C(=C\c2ccc(-c3cc(C(=O)O)ccc3C)o2)C1=O [NB205] | – | – | – | > 435
39 | – | > 100 | > 100 | C=CCN1C(=O)/C(=C/c2ccc(-c3cc(C(=O)O)cc(C(=O)O)c3)o2)SC1=S [NB225] | – | – | – | > 386
